In US20050070510A1, “Substituted tetracycline compounds as synergistic antifungal agents” (Paratek Pharmaceuticals, Inc., priority 2001, published 2005):

Each compound was assayed on COS-1 cells (assay: In vitro mammalian cytotoxicity assay (Resazurin)).
CCC(C)CNCc1cc(N(C)C)c2c(c1O)C(=O)C1=C(O)[C@]3(C#N)C(=O)C(C(N)=O)=C(O)[C@@H](N(C)C)[C@]3(N)C[C@]1(N)C2 (stereo partly drawn) [SZ] was tested, and the “In Vitro Cytotoxicity” value was “* (toxicities greater than >25 μg/ml are represented by *)”.
CN(C)c1cc(CN(Cc2ccn[nH]2)Cc2ccn[nH]2)c(O)c2c1C[C@@]1(N)C[C@@]3(N)[C@H](N(C)C)C(O)=C(C(N)=O)C(=O)[C@@]3(C#N)C(O)=C1C2=O [TA] was tested, and the “In Vitro Cytotoxicity” value was “* (toxicities greater than >25 μg/ml are represented by *)”.
CN(C)c1cc(CNCC2CCCCC2)c(O)c2c1C[C@@]1(N)C[C@@]3(N)[C@H](N(C)C)C(O)=C(C(N)=O)C(=O)[C@@]3(C#N)C(O)=C1C2=O [TB] was tested, and the “In Vitro Cytotoxicity” value was “* (toxicities greater than >25 μg/ml are represented by *)”.
For CN(C)c1cc(CNC(N)=O)c(O)c2c1C[C@@]1(N)C[C@@]3(N)[C@H](N(C)C)C(O)=C(C(N)=O)C(=O)[C@@]3(C#N)C(O)=C1C2=O [TD], the “In Vitro Cytotoxicity” value was “* (toxicities greater than >25 μg/ml are represented by *)”.
Cc1coc(NCc2cc(N(C)C)c3c(c2O)C(=O)C2=C(O)[C@]4(C#N)C(=O)C(C(N)=O)=C(O)[C@@H](N(C)C)[C@]4(N)C[C@]2(N)C3)n1 [TE] was tested, and the “In Vitro Cytotoxicity” value was “* (toxicities greater than >25 μg/ml are represented by *)”.
CCOC(=O)c1coc(NCc2cc(N(C)C)c3c(c2O)C(=O)C2=C(O)[C@]4(C#N)C(=O)C(C(N)=O)=C(O)[C@@H](N(C)C)[C@]4(N)C[C@]2(N)C3)n1 [TF] was tested, and the “In Vitro Cytotoxicity” value was “* (toxicities greater than >25 μg/ml are represented by *)”.
With CN(C)[C@@H]1C(O)=C(C(N)=O)C(=O)[C@@]2(C#N)C(O)=C3C(=O)c4c(O)c(CNCC(C)(C)C)cc(CNCC(C)(C)C)c4C[C@@]3(N)C[C@@]12N [TG] the “In Vitro Cytotoxicity” value was “* (toxicities greater than >25 μg/ml are represented by *)”.
CN(C)c1cc(CNCc2ccccc2)c(O)c2c1C[C@@]1(N)C[C@@]3(N)[C@H](N(C)C)C(O)=C(C(N)=O)C(=O)[C@@]3(C#N)C(O)=C1C2=O [TH] was tested, and the “In Vitro Cytotoxicity” value was “* (toxicities greater than >25 μg/ml are represented by *)”.
Cc1noc(C)c1S(=O)(=O)NCc1cc(N(C)C)c2c(c1O)C(=O)C1=C(O)[C@]3(C#N)C(=O)C(C(N)=O)=C(O)[C@@H](N(C)C)[C@]3(N)C[C@]1(N)C2 [TJ] was tested, and the “In Vitro Cytotoxicity” value was “* (toxicities greater than >25 μg/ml are represented by *)”.
CN(C)c1cc(CNCC(C)(C)C)c(O)c2c1C[C@@]1(N)C[C@@]3(N)[C@H](N(C)C)C(O)=C(C(N)=O)C(=O)[C@@]3(C#N)C(O)=C1C2=O [TK] was tested, and the “In Vitro Cytotoxicity” value was “* (toxicities greater than >25 μg/ml are represented by *)”.
In the case of CN(C)[C@@H]1C(O)=C(C(N)=O)C(=O)[C@@]2(C#N)C(O)=C3C(=O)c4c(O)ccc(-c5cncnc5)c4C[C@@]3(N)C[C@@]12N [TQ], the “In Vitro Cytotoxicity” value is reported as “* (toxicities greater than >25 μg/ml are represented by *)”.
CN(C)c1cc(NCc2cc(F)cc(F)c2)c(O)c2c1C[C@@]1(N)C[C@@]3(N)[C@H](N(C)C)C(O)=C(C(N)=O)C(=O)[C@@]3(C#N)C(O)=C1C2=O [TS] was tested, and the “In Vitro Cytotoxicity” value was “** (toxicities less than 25 μg/mL are represented by **)”.
CCCCCC(=O)c1ccc(O)c2c1C[C@@]1(N)C[C@@]3(N)[C@H](N(C)C)C(O)=C(C(N)=O)C(=O)[C@@]3(C#N)C(O)=C1C2=O [TT] was tested, and the “In Vitro Cytotoxicity” value was “** (toxicities less than 25 μg/mL are represented by **)”.
For CN(C)c1cc(NCc2ccc(C#N)cc2)c(O)c2c1C[C@@]1(N)C[C@@]3(N)[C@H](N(C)C)C(O)=C(C(N)=O)C(=O)[C@@]3(C#N)C(O)=C1C2=O [TU], the “In Vitro Cytotoxicity” value was “* (toxicities greater than >25 μg/ml are represented by *)”.
In the case of CC(C)c1ccc(CNc2cc(N(C)C)c3c(c2O)C(=O)C2=C(O)[C@]4(C#N)C(=O)C(C(N)=O)=C(O)[C@@H](N(C)C)[C@]4(N)C[C@]2(N)C3)cc1 [TV], the “In Vitro Cytotoxicity” value is reported as “** (toxicities less than 25 μg/mL are represented by **)”.
For COc1ccc(CNc2cc(N(C)C)c3c(c2O)C(=O)C2=C(O)[C@]4(C#N)C(=O)C(C(N)=O)=C(O)[C@@](N)(N(C)C)[C@]4(N)C[C@]2(N)C3)cc1O [TW], the “In Vitro Cytotoxicity” value was “* (toxicities greater than >25 μg/ml are represented by *)”.
For CN(C)c1cc(NCC2=CC=C(C(C)(C)C)CC2)c(O)c2c1C[C@@]1(N)C[C@@]3(N)[C@H](N(C)C)C(O)=C(C(N)=O)C(=O)[C@@]3(C#N)C(O)=C1C2=O [TX], the “In Vitro Cytotoxicity” value was “** (toxicities less than 25 μg/mL are represented by **)”.
With CN(C)c1cc(NCc2ccc(O)c(O)c2)c(O)c2c1C[C@@]1(N)C[C@@]3(N)[C@H](N(C)C)C(O)=C(C(N)=O)C(=O)[C@@]3(C#N)C(O)=C1C2=O [TY] the “In Vitro Cytotoxicity” value was “* (toxicities greater than >25 μg/ml are represented by *)”.
With C=CCC(O)c1ccc(OC)c(-c2ccc(O)c3c2C[C@@]2(N)C[C@@]4(N)[C@H](N(C)C)C(O)=C(C(N)=O)C(=O)[C@@]4(C#N)C(O)=C2C3=O)c1 (stereo partly drawn) [UE] the “In Vitro Cytotoxicity” value was “** (toxicities less than 25 μg/mL are represented by **)”.
For COC(=O)/C=C/c1cccc(-c2ccc(O)c3c2C[C@@]2(N)C[C@@]4(N)[C@H](N(C)C)C(O)=C(C(N)=O)C(=O)[C@@]4(C#N)C(O)=C2C3=O)c1 [UF], the “In Vitro Cytotoxicity” value was “** (toxicities less than 25 μg/mL are represented by **)”.
With CN(C)c1cc(NCc2ccc([N+](=O)O)o2)c(O)c2c1C[C@@]1(N)C[C@@]3(N)[C@H](N(C)C)C(O)=C(C(N)=O)C(=O)[C@@]3(C#N)C(O)=C1C2=O [UH] the “In Vitro Cytotoxicity” value was “** (toxicities less than 25 μg/mL are represented by **)”.
CN(C)[C@@H]1C(O)=C(C(N)=O)C(=O)[C@@]2(C#N)C(O)=C3C(=O)c4c(O)ccc(-c5cccnc5)c4C[C@@]3(N)C[C@@]12N [UL] was tested, and the “In Vitro Cytotoxicity” value was “** (toxicities less than 25 μg/mL are represented by **)”.
CCC(NCc1cc(N(C)C)c2c(c1O)C(=O)C1=C(O)[C@]3(C#N)C(=O)C(C(N)=O)=C(O)[C@@H](N(C)C)[C@]3(N)C[C@]1(N)C2)C(F)(F)F (stereo partly drawn) [UM] was tested, and the “In Vitro Cytotoxicity” value was “** (toxicities less than 25 μg/mL are represented by **)”.
In the case of CN(C)[C@@H]1C(O)=C(C(N)=O)C(=O)[C@@]2(C#N)C(O)=C3C(=O)c4c(O)ccc(-c5ccncc5)c4C[C@@]3(N)C[C@@]12N [UN], the “In Vitro Cytotoxicity” value is reported as “** (toxicities less than 25 μg/mL are represented by **)”.
In the case of CN(C)[C@@H]1C(O)=C(C(N)=O)C(=O)[C@@]2(C#N)C(O)=C3C(=O)c4c(O)ccc(-c5ccc(CNc6cccnc6)cc5)c4C[C@@]3(N)C[C@@]12N [UO], the “In Vitro Cytotoxicity” value is reported as “** (toxicities less than 25 μg/mL are represented by **)”.
CC(=O)OCC(=O)Nc1ccc(-c2ccc(O)c3c2C[C@@]2(N)C[C@@]4(N)[C@H](N(C)C)C(O)=C(C(N)=O)C(=O)[C@@]4(C#N)C(O)=C2C3=O)cc1 [UR] was tested, and the “In Vitro Cytotoxicity” value was “** (toxicities less than 25 μg/mL are represented by **)”.
For CN(C)[C@@H]1C(O)=C(C(N)=O)C(=O)[C@@]2(C#N)C(O)=C3C(=O)c4c(O)ccc(-c5ccc(NC(=O)NCCCCl)cc5)c4C[C@@]3(N)C[C@@]12N [US], the “In Vitro Cytotoxicity” value was “** (toxicities less than 25 μg/mL are represented by **)”.
COC(=O)CCC(=O)Nc1ccc(-c2ccc(O)c3c2C[C@@]2(N)C[C@@]4(N)[C@H](N(C)C)C(O)=C(C(N)=O)C(=O)[C@@]4(C#N)C(O)=C2C3=O)cc1 [UT] was tested, and the “In Vitro Cytotoxicity” value was “** (toxicities less than 25 μg/mL are represented by **)”.
CN(C)[C@@H]1C(O)=C(C(N)=O)C(=O)[C@@]2(C#N)C(O)=C3C(=O)c4c(O)ccc(-c5ccc(NC(=O)CBr)cc5)c4C[C@@]3(N)C[C@@]12N [UV] was tested, and the “In Vitro Cytotoxicity” value was “** (toxicities less than 25 μg/mL are represented by **)”.
In the case of Cc1cccnc1-c1ccc(O)c2c1C[C@@]1(N)C[C@@]3(N)[C@H](N(C)C)C(O)=C(C(N)=O)C(=O)[C@@]3(C#N)C(O)=C1C2=O [UW], the “In Vitro Cytotoxicity” value is reported as “* (toxicities greater than >25 μg/ml are represented by *)”.
